Columns and labels:
Format in all cases: in vivo, rat
[1] = system: bilaterally nephrectomized rats; assay: Survival of bilaterally nephrectomized rats after single doses; details: for number of rats surviving (of five per group): 48 hours after the administration
From the text: (§1) After quarantine and acclimatization periods of 6 days, fifty-one rats (Crl: CD (SD), male) aged 7 weeks were fed a 100% sucrose diet ad libitum from four days before the surgery. On the day of the surgery, skin incisions were made on the back at the sites of the right and left kidneys under isoflurane anesthesia and the renal capsules were removed to ligate the renal arteries and veins and the ureters using threads before removing the right and left kidneys. A penicillin solution was given upon suturing, and 5 mL of physiological saline was intraperitoneally administered before returning the rats into the breeding cages.
(§2) On a day after the bilaterally nephrectomy, the given doses were calculated based on the weight of the selected animals on that day. Group 1 was given a medium (physiological saline), Groups 2, 3 and 4 were given the Compound A1 solution (0.3, 3 and 30 mg/mL, respectively), and Groups 5, 6, 7 and 8 (5 rats per group) were given the comparative compound (0.3, 1, 3 and 10 mg/mL, respectively), each given a single dose of 1 ml/kg from the tail vein. Prior to the administration (0 hours), and 24 and 48 hours after the administration, approximately 300 μL of blood was collected without anesthesia from the tail vein using capillary tubes for obtaining the serum. The blood for obtaining the serum was left to stand at room temperature, and centrifuged in a high speed refrigerated microcentrifuge (10,000 rpm, 5 min, 4° C.) within a period of 30 minutes to 2 hours after the blood collection to collect the serum.

[2] = Estimated plasma concentration in bilaterally nephrectomized rats; details: 48 hours after single intravenous administration at 3 mg/kg
serum iPTH concentration = assay: Serum iPTH concentration in bilaterally nephrectomized rats after single intravenous administration
From the text: as §1
(§3) On the day of administering the test substance, for example, a day after the bilaterally nephrectomy, approximately 100 μL of blood was collected from the tail vein without anesthesia using a capillary tube, which was centrifuged in a high speed refrigerated microcentrifuge (10,000 rpm, 5 min, 4° C.) to separate the serum. Thereafter, the serum Ca concentration was measured with a dri-chemanalyzer (model number: FUJI DRI-CHEM 7000, manufacturer: FUJI FILM Medical Co., Ltd.) to select individuals with a serum Ca concentration of 8.0 mg/dL or more and less than 14.0 mg/dL.
as §2
(§4) Thereafter, the serum Ca was analyzed with COBAS analyzer (Model number: COBAS INTEGRA 400 plus, manufacturer: Roche Diagnostics K.K.), and the remaining serum was stored in an ultra-low freezer (temperature set to −80±15° C.) until the day of iPTH measurement. On the day of iPTH measurement, the serum was melted at room temperature for measurement.
(§5) A 30 mg/ml Compound A1 solution ([…] of Compound A1 dissolved in 10 ml of physiological saline) was diluted with physiological saline to prepare 0.3 mg/ml and […] Compound A1 solutions.
(§6) 149 mg of etelcalcetide (Ac-c(C) arrrar-NH2) TFA salt (WO 2011/014707 A) was prepared to have pH of 6 to 8 with 7 ml of physiological saline and a 0.5N aqueous NaOH solution, and physiological saline was further added thereto to make 10 ml. The prepared 10 mg/ml comparative compound solution was diluted with physiological saline to obtain 0.3 mg/ml and 1 mg/ml comparative compound solutions.

serum Ca concentration = assay: Serum Ca concentration in bilaterally nephrectomized rats after single intravenous administration
From the text: as §1, §3, §2, §4, §5, §6

[3] = 0.3 mg/kg single i.v., 24 hours after the administration
[4] = 0.3 mg/kg single i.v., 48 hours after the administration
[5] = 1 mg/kg single i.v., 24 hours after the administration
[6] = 1 mg/kg single i.v., 48 hours after the administration
[7] = 3 mg/kg single i.v., 24 hours after the administration
[8] = 3 mg/kg single i.v., 48 hours after the administration
[9] = 10 mg/kg single i.v., 24 hours after the administration
[10] = 10 mg/kg single i.v., 48 hours after the administration (n=1)
[11] = logistic curve fitting, 48 hours after the administration vs given dose

## CC(=O)N[C@H](CSSC[C@H](N)C(=O)O)C(=O)N[C@H](C)C(=O)N[C@H](CCCNC(=N)N)C(=O)N[C@H](CCCNC(=N)N)C(=O)N[C@H](CCCNC(=N)N)C(=O)N[C@H](C)C(=O)N[C@H](CCCNC(=N)N)C(N)=O [comparative compound, etelcalcetide]
[1]; 3 mg/kg group
  number of rats surviving (of five per group): four
[1]; 10 mg/kg group
  number of rats surviving (of five per group): one
[1]; relation to dose
  number of dead rats: increased in a dose-dependent manner
[2]
  plasma concentration (estimated): 130 ng/mL
Serum iPTH concentration; [3]
  mean serum iPTH concentration: 122 pg/mL
Serum iPTH concentration; [4]
  mean serum iPTH concentration: 510 pg/mL
Serum iPTH concentration; [5]
  mean serum iPTH concentration: 52 pg/mL
Serum iPTH concentration; [6]
  mean serum iPTH concentration: 280 pg/mL
Serum iPTH concentration; [7]
  mean serum iPTH concentration: 22 pg/mL
Serum iPTH concentration; [8]
  mean serum iPTH concentration: 41 pg/mL
Serum iPTH concentration; [9]
  mean serum iPTH concentration: 104 pg/mL
Serum iPTH concentration; [10]
  mean serum iPTH concentration: 230 pg/mL
Serum iPTH concentration; [11]
  lower limit value of the serum iPTH concentration (simulated): 48.18 pg/mL
Serum iPTH concentration; plasma concentration, rats
  50% effective concentration, EC50 value, for decreasing the serum iPTH concentration: 0.04 µg/mL
Serum iPTH concentration; renal failure rat models, during 48 hours after the administration, relation to dose
  decrease of serum iPTH and Ca concentrations: in a dose-dependent manner
Serum Ca concentration; [3]
  mean serum Ca concentration: 8.33 mg/dL
Serum Ca concentration; [4]
  mean serum Ca concentration: 10.44 mg/dL
Serum Ca concentration; [5]
  mean serum Ca concentration: 6.42 mg/dL
Serum Ca concentration; [6]
  mean serum Ca concentration: 7.33 mg/dL
Serum Ca concentration; [7]
  mean serum Ca concentration: 6.82 mg/dL
Serum Ca concentration; [8]
  mean serum Ca concentration: 5.85 mg/dL
Serum Ca concentration; [9]
  mean serum Ca concentration: 6.95 mg/dL
Serum Ca concentration; [10]
  mean serum Ca concentration: 6.65 mg/dL
Serum Ca concentration; [11]
  lower limit value of the serum Ca concentration (simulated): 5.880 mg/dL
